± gives the expanded uncertainty stated by the source.
Experiment: xn = mol fraction of the nth substance listed
Conditions: 298.15 K, Liquid

CCO [ethanol] + O
mass density [kg/m3]
Conditions | 100 kPa | 10000 kPa | 20000 kPa | 30000 kPa
x1 = 0.003 | 995.3 ± 0.2 | 999.8 ± 0.3 | 1004.2 ± 0.3 | 1008.5 ± 0.3
x1 = 0.0042 | 994.5 ± 0.2 | 998.9 ± 0.2 | 1003.2 ± 0.3 | 1007.4 ± 0.3
x1 = 0.0082 | 993 ± 0.2 | 997.3 ± 0.2 | 1001.7 ± 0.2 | 1005.9 ± 0.3
x1 = 0.0119 | 991.5 ± 0.2 | 995.8 ± 0.2 | 1000.1 ± 0.2 | 1004.3 ± 0.3
x1 = 0.0158 | 989.8 ± 0.3 | 994 ± 0.3 | 998.2 ± 0.3 | 1002.4 ± 0.3
x1 = 0.0184 | 988.4 ± 0.2 | 992.6 ± 0.2 | 996.8 ± 0.2 | 1000.9 ± 0.2
x1 = 0.0219 | 987.6 ± 0.2 | 991.7 ± 0.2 | 995.9 ± 0.2 | 1000.1 ± 0.2
x1 = 0.0255 | 986 ± 0.3 | 990.2 ± 0.3 | 994.4 ± 0.3 | 998.4 ± 0.3
x1 = 0.0279 | 984.7 ± 0.2 | 988.7 ± 0.2 | 992.9 ± 0.2 | 996.9 ± 0.2
x1 = 0.0315 | 984 ± 0.2 | 988 ± 0.2 | 992.1 ± 0.2 | 996.1 ± 0.2
x1 = 0.0366 | 981.6 ± 0.3 | 985.7 ± 0.3 | 989.8 ± 0.3 | 993.8 ± 0.3
x1 = 0.0392 | 980.7 ± 0.2 | 984.7 ± 0.3 | 988.6 ± 0.3 | 992.6 ± 0.3
x1 = 0.0439 | 979.2 ± 0.3 | 983.3 ± 0.3 | 987.3 ± 0.3 | 991.2 ± 0.3
x1 = 0.0483 | 977.5 ± 0.2 | 981.6 ± 0.3 | 985.6 ± 0.3 | 989.5 ± 0.3
x1 = 0.0516 | 977.1 ± 0.2 | 981 ± 0.3 | 985.1 ± 0.3 | 988.9 ± 0.3
x1 = 0.0559 | 975.8 ± 0.3 | 979.8 ± 0.3 | 983.8 ± 0.3 | 987.7 ± 0.3
x1 = 0.06 | 974.5 ± 0.3 | 978.5 ± 0.3 | 982.4 ± 0.3 | 986.3 ± 0.3
x1 = 0.0652 | 972.9 ± 0.3 | 976.9 ± 0.3 | 980.8 ± 0.3 | 984.7 ± 0.3
x1 = 0.0679 | 972.2 ± 0.3 | 976.1 ± 0.3 | 980 ± 0.3 | 983.9 ± 0.3
x1 = 0.0722 | 971 ± 0.3 | 974.9 ± 0.3 | 978.7 ± 0.3 | 982.6 ± 0.3
x1 = 0.0801 | 968.6 ± 0.3 | 972.4 ± 0.3 | 976.2 ± 0.3 | 980 ± 0.3
x1 = 0.084 | 967.9 ± 0.3 | 971.8 ± 0.3 | 975.7 ± 0.3 | 979.5 ± 0.3
x1 = 0.0879 | 966.7 ± 0.3 | 970.6 ± 0.3 | 974.4 ± 0.3 | 978.2 ± 0.3
x1 = 0.0926 | 965.6 ± 0.3 | 969.3 ± 0.3 | 973.2 ± 0.3 | 976.9 ± 0.3
x1 = 0.0958 | 964.6 ± 0.3 | 968.5 ± 0.3 | 972.4 ± 0.3 | 976.1 ± 0.3
x1 = 0.1006 | 963.2 ± 0.3 | 967.1 ± 0.3 | 971 ± 0.3 | 974.8 ± 0.3
x1 = 0.1111 | 960.2 ± 0.3 | 964.1 ± 0.3 | 968 ± 0.3 | 971.7 ± 0.3
x1 = 0.1225 | 956.8 ± 0.3 | 960.7 ± 0.3 | 964.7 ± 0.3 | 968.5 ± 0.3
x1 = 0.1296 | 954.9 ± 0.3 | 958.8 ± 0.3 | 962.8 ± 0.3 | 966.7 ± 0.3
x1 = 0.1402 | 951.8 ± 0.3 | 955.8 ± 0.3 | 961.3 ± 0.3 | 963.7 ± 0.3
x1 = 0.151 | 948.4 ± 0.3 | 952.5 ± 0.3 | 956.6 ± 0.3 | 960.5 ± 0.3
x1 = 0.1601 | 945.6 ± 0.3 | 949.8 ± 0.3 | 953.9 ± 0.3 | 957.9 ± 0.3
x1 = 0.1703 | 942.5 ± 0.3 | 946.7 ± 0.3 | 950.9 ± 0.3 | 955 ± 0.3
x1 = 0.18 | 939.8 ± 0.3 | 943.9 ± 0.3 | 948.1 ± 0.3 | 952.2 ± 0.3
x1 = 0.1903 | 936.5 ± 0.3 | 940.9 ± 0.3 | 945.2 ± 0.3 | 949.3 ± 0.3
x1 = 0.1996 | 933.5 ± 0.3 | 938 ± 0.3 | 942.3 ± 0.3 | 946.5 ± 0.3
x1 = 0.2269 | 925.4 ± 0.3 | 930 ± 0.3 | 934.5 ± 0.3 | 938.7 ± 0.4
x1 = 0.2502 | 918.5 ± 0.3 | 923.3 ± 0.3 | 928 ± 0.3 | 932.4 ± 0.4
x1 = 0.2745 | 911.7 ± 0.3 | 916.6 ± 0.3 | 921.3 ± 0.4 | 925.9 ± 0.4
x1 = 0.3009 | 904.5 ± 0.3 | 909.6 ± 0.3 | 914.5 ± 0.4 | 919.2 ± 0.4
x1 = 0.35 | 891.9 ± 0.3 | 897.1 ± 0.3 | 902.3 ± 0.4 | –
x1 = 0.4034 | 879.4 ± 0.3 | 884.9 ± 0.4 | 890.4 ± 0.4 | –
x1 = 0.4501 | 868.8 ± 0.3 | 874.7 ± 0.4 | 880.4 ± 0.4 | –
x1 = 0.498 | 859.3 ± 0.3 | 865.4 ± 0.4 | 871.3 ± 0.4 | –
x1 = 0.5501 | 849.5 ± 0.3 | 855.8 ± 0.4 | 861.9 ± 0.4 | –
x1 = 0.5998 | 840.9 ± 0.3 | 847.4 ± 0.4 | 853.7 ± 0.5 | –
x1 = 0.6489 | 832.7 ± 0.3 | 839.5 ± 0.4 | 846 ± 0.5 | –
x1 = 0.6967 | 825.2 ± 0.3 | 832.3 ± 0.4 | 839 ± 0.5 | –
x1 = 0.7475 | 818.2 ± 0.3 | 825.4 ± 0.4 | 832.3 ± 0.5 | –
x1 = 0.7996 | 810.9 ± 0.3 | 818.3 ± 0.4 | 825.4 ± 0.5 | –
x1 = 0.8484 | 804.4 ± 0.3 | 812.1 ± 0.4 | 819.3 ± 0.5 | –
x1 = 0.8993 | 798 ± 0.3 | 805.8 ± 0.4 | 813.3 ± 0.5 | –
x1 = 0.9503 | 791.7 ± 0.4 | 799.9 ± 0.4 | 807.5 ± 0.5 | –
x1 = 1 | 785.7 ± 0.4 | 794 ± 0.4 | 801.9 ± 0.6 | –

Source: the NIST ThermoML archive (doi:10.1016/j.fluid.2004.11.019)
